Experimental data taken from patent US20230303570A1, “KINASE INHIBITORS AND USES THEREOF” (ABM Therapeutics Corporation, priority 2020, published 2023).

Columns and labels:
PAK1 [1] = biological target: T1, PAK1 (Homo sapiens, UniProt Q13153); assay: In vitro kinase assay, PAK1 (Caliper EZ Reader conversion); format: biochemical; parameters: purchased Carna Biosciences
Procedure, shortened: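 Human PAK1 was preincubated with compound (6 concentrations, 4-fold dilutions) for 10 min at room temperature, then reacted with substrate mix for 30 and 60 min. Substrate conversion was read by Caliper mobility shift. IC50 was fitted by variable-slope log(inhibitor)–response, normalised to FRAX597 and buffer controls.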

HPK1 (MAP4K1) = HPK1 (MAP4K1) (Homo sapiens, UniProt Q92918); assay: HPK1 (MAP4K1) kinase Lantha screen assay; format: biochemical
Sequence of HPK1 (MAP4K1) (Q92918 whole entry, species assumed): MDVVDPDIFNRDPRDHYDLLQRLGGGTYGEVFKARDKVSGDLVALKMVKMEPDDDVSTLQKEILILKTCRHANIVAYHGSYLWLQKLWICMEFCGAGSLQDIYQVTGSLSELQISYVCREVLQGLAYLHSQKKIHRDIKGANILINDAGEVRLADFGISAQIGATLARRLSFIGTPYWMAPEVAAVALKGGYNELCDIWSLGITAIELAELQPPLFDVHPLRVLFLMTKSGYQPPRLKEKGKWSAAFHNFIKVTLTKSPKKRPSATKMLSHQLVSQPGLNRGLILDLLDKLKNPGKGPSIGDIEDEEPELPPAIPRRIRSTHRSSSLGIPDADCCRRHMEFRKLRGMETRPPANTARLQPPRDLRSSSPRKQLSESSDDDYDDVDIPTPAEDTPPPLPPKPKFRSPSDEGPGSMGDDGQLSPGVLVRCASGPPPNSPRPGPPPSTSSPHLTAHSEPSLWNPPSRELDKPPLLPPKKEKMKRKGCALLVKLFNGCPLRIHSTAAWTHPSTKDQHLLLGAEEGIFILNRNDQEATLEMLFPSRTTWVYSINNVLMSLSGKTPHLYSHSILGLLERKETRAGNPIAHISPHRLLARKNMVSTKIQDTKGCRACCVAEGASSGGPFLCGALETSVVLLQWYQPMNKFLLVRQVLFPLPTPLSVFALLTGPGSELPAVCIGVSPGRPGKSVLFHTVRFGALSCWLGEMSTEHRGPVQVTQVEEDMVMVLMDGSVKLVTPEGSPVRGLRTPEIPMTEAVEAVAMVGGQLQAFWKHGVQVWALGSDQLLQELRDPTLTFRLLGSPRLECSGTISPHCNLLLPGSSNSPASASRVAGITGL
Procedure, shortened: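 Recombinant MAP4K1 preincubated 10 min with compound (6-point dilution, duplicates) in 50 mM HEPES pH 7.5, 10 mM MgCl2, then reacted with Fluorescein-PKC substrate and ATP for 90 min at room temperature. Antibody detection solution stopped reaction; after 60 min, TR-FRET read at ex 340 nm, em 520/495 nm.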

RET = RET (Homo sapiens, UniProt P07949); assay: RET kinase mobility shift assay; format: biochemical
Sequence of RET (P07949 29-1114, species assumed): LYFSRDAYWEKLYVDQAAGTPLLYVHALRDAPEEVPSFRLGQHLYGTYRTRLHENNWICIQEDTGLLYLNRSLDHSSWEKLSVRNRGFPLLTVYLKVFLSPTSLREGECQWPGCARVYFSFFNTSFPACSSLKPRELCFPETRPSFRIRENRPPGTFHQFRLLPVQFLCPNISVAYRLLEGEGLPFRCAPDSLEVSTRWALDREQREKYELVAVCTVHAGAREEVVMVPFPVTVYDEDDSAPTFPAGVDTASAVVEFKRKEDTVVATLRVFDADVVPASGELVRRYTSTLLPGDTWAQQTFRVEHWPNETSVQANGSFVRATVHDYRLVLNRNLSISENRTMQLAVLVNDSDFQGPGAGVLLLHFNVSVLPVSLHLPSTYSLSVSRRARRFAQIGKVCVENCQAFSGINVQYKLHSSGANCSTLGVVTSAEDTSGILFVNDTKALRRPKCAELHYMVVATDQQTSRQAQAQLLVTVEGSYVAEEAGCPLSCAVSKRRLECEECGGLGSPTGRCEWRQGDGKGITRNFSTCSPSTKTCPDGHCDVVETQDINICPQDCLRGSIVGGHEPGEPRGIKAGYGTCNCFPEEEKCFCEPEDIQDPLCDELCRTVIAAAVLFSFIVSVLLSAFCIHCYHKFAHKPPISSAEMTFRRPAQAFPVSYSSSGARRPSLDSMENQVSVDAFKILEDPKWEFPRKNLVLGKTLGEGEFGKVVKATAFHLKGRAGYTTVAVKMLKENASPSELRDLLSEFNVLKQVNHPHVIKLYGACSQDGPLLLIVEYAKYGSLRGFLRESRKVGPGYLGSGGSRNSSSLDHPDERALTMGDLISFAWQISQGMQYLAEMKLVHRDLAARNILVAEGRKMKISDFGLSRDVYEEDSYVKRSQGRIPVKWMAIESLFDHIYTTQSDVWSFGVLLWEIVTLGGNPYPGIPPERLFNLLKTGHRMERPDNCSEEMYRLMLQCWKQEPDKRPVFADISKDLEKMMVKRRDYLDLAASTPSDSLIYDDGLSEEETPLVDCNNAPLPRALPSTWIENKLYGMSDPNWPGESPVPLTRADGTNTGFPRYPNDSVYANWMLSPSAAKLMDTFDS
Experimental: (§1) The effect of the compounds on the activity of cKit, RET and AXL kinases were assessed by Mobility shift assay. • 1. 1× kinase base buffer and stop buffer for testing kinases were prepared • 1-1) 1× Kinase base buffer (50 mM HEPES, pH 7.5, 0.01% Triton X-100) • 1-2) Stop buffer (100 mM HEPES, pH 7.5, 0.015% Brij-35, 0.2% Coating Reagent #3, 50 mM EDTA) • 2. Compound and assay plate preparation: the compound was diluted to 50× of the final desired highest inhibitor concentration in reaction by 100% DMSO. 100 μl of this compound dilution was transferred to a well in a 96-well plate. For example, if the highest desired concentration was 5 μM, then 250 μM of compound DMSO solution was prepared in this step. For all compounds, the compound was serially diluted by transferring 10 μl to 70 μl of 100 DMSO in the next well and so forth for a total of 5 concentrations. 100 μl of 100% DMSO was added to two empty wells for no compound control and no enzyme control in the same 96-well plate. The plate was labeled as source plate. The intermediate plate was prepared by transferring 10 μl of compound from source plate to a new 96-well plate as the intermediate plate, adding 90 μl of 1× kinase buffer to each well of the intermediate plate, mixing the compounds in intermediate plate for 10 min on shaker. 5 μl of each well from the 96-well intermediate plate were transferred to a 384-well plate in duplicates. For example, A1 of the 96-well plate was transferred to A1 and A2 of the 384-well plate. A2 of the 96-well plate was transferred to A3 and A4 of the 384-well plate, and so on. • 4. Kinase reaction: The assay plate already contained 5 μl of compound in 10% DMSO. A 2.5× enzyme solution was prepared by adding kinases (cKit, RET, or AXL) and DTT in 1× kinase base buffer. 2.5× enzyme solution was transferred to the assay plate (by adding 10 μl of 2.5× enzyme solution to each well of the 384-well assay plate). The plate was incubated at room temperature for 10 min. 2.5× peptide solution was prepared by adding FAM-labeled peptide, ATP, MgCl2 in the 1× kinase base buffer. 2.5× peptide solution was added to the assay plate by adding 10 μl of 2.5× peptide solution to each well of the 384-well assay plate. The plate was incubated at 28° C. for the specified period of time. 25 μl of stop buffer was added to stop reaction. Data was collected on Caliper.

c-Kit = c-Kit (Homo sapiens, UniProt P10721); assay: cKit kinase mobility shift assay; format: biochemical
Sequence of c-Kit (P10721 26-976): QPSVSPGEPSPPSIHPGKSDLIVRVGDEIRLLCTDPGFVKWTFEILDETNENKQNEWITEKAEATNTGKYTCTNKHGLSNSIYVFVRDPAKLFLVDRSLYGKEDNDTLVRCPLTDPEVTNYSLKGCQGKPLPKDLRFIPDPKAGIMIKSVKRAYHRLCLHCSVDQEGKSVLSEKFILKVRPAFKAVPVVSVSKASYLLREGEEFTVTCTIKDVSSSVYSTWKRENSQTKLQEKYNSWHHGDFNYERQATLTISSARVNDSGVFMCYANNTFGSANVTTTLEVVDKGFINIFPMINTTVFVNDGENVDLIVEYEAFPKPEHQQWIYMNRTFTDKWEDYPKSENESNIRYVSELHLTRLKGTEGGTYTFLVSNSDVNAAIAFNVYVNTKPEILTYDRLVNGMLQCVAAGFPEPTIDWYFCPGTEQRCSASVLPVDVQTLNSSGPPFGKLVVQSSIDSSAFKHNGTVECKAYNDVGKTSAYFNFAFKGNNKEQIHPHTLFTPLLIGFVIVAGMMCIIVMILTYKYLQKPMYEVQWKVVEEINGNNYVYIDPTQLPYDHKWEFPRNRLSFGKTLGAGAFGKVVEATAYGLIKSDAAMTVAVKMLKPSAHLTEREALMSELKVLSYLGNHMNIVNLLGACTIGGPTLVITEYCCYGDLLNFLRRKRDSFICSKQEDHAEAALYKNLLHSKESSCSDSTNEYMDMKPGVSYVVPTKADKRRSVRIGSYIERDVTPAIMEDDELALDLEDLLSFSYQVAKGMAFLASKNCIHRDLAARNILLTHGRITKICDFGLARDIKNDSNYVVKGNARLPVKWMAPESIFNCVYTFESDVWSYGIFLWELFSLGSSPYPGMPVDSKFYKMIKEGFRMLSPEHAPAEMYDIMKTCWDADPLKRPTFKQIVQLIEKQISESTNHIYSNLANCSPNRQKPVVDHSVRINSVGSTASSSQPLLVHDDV
Procedure, shortened: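 Human kinase with DTT in 50 mM HEPES pH 7.5 and 0.01% Triton X-100 was preincubated with compound for 10 min at room temperature, using a 5-point dilution in duplicate. FAM-labeled peptide, ATP and MgCl2 were then added and the reaction run at 28° C. Reactions were stopped with EDTA buffer and peptide conversion was read by Caliper mobility shift.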

P-glycoprotein (MDR1) = assay: in vitro; settings: dog, MDCK-MDR1
Axl = biological target: T2, Axl (Homo sapiens, UniProt P30530); assay: AXL kinase mobility shift assay; format: biochemical
T2 sequence (P30530 26-894): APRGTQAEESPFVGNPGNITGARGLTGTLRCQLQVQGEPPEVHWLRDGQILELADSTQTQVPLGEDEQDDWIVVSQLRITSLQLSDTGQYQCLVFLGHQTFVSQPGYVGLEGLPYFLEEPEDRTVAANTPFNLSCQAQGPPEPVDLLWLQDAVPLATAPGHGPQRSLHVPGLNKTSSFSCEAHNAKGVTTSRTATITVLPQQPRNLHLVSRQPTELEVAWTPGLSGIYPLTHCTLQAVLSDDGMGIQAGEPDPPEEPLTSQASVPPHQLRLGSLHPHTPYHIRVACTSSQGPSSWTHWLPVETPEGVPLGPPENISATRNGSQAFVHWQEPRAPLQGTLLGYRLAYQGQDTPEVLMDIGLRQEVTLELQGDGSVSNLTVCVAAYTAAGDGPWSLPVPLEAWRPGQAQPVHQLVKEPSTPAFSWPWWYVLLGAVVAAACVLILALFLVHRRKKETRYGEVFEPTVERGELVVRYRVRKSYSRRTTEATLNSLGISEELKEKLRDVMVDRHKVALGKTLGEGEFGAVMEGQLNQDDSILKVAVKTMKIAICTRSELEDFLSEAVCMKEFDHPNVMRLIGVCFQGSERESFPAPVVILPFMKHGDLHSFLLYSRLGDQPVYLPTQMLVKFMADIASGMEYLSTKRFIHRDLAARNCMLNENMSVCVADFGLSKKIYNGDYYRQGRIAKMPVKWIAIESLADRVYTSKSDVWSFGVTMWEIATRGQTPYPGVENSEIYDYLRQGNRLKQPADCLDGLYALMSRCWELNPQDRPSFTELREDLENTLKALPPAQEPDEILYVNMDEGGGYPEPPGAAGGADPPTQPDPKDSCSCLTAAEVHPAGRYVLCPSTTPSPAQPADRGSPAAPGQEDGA
Experimental: as §1

PAK1 [2] = biological target: T1, PAK1; settings: background statement on known PAK1 inhibitors; result in words only; cited from earlier work

T1 sequence (Q13153 whole entry): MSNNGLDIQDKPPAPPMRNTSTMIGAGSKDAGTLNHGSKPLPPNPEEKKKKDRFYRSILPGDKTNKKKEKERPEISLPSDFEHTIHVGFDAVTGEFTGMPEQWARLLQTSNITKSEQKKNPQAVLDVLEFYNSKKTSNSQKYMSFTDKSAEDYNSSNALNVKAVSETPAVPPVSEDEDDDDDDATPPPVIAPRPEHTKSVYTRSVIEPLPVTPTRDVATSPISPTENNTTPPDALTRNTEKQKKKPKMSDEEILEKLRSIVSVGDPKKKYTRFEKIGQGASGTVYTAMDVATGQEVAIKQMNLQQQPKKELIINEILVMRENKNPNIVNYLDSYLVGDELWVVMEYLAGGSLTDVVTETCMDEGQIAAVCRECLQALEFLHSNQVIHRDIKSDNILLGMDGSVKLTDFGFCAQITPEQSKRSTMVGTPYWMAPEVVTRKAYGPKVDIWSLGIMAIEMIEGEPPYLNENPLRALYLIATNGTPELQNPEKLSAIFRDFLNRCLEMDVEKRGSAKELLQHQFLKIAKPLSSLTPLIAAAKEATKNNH

IC50 (HPK1 (MAP4K1)) [nM]	IC50 (RET) [nM]	SMILES	also measured
100 to 10000	< 100	CNc1ncc2c(n1)N1CCN=C1C(c1cc(NC(=O)c3cc(C(F)(F)F)ccn3)ccc1C)=C2 [Compound 107, N-(4-methyl-3-(2-(methylamino)-8,9-dihydroimidazo[1′,2′:1,6]pyrido[2,3-d]pyrimidin-6-yl)phenyl)-4-(trifluoromethyl)picolinamide]	IC50 (PAK1 [1]): > 10000 nM; IC50 (c-Kit): < 100 nM
100 to 10000	< 100	Cc1ccc(NC(=O)c2cc(C(F)(F)F)ccn2)cc1C1=Cc2cnc(NCCF)nc2N2CCN=C12 [Compound 111, N-(3-(2-((2-fluoroethyl)amino)-8,9-dihydroimidazo[1′,2′:1,6]pyrido[2,3-d]pyrimidin-6-yl)-4-methylphenyl)-4-(trifluoromethyl)picolinamide]	
< 100		Cc1ccc(NC(=O)c2cc(C(F)(F)F)ccn2)cc1C1=Cc2cnc(NC3CCOCC3)nc2N2CCN=C12 [Compound 115, N-(4-methyl-3-(2-((tetrahydro-2H-pyran-4-yl)amino)-8,9-dihydroimidazo[1′,2′:1,6]pyrido[2,3-d]pyrimidin-6-yl)phenyl)-4-(trifluoromethyl)picolinamide hydrogen chloride]	Papp A→B at 120 min (P-glycoprotein (MDR1)): 22.8 ×10⁻⁶ cm/s; Papp B→A at 120 min (P-glycoprotein (MDR1)): 36.9 ×10⁻⁶ cm/s; efflux ratio at 120 min (P-glycoprotein (MDR1)): 1.6; IC50 (c-Kit): < 100 nM
100 to 10000	100 to 10000	CNc1ncc2c(n1)N1CCN=C1C(c1cc(NC(=O)c3cc(C(F)(F)F)ccn3)ccc1C)=C2C [Compound 120, N-(4-methyl-3-(5-methyl-2-(methylamino)-8,9-dihydroimidazo[1′,2′:1,6]pyrido[2,3-d]pyrimidin-6-yl)phenyl)-4-(trifluoromethyl)picolinamide]	
100 to 10000	100 to 10000	CNc1ncc2c(n1)N1CCN=C1C(c1cc(NC(=O)c3cc(C(F)(F)F)ccn3)ccc1F)=C2C [Compound 121, N-(4-fluoro-3-(5-methyl-2-(methylamino)-8,9-dihydroimidazo[1′,2′:1,6]pyrido[2,3-d]pyrimidin-6-yl)phenyl)-4-(trifluoromethyl)picolinamide]	
> 10000	> 10000	CNc1nc(C)c2c(n1)N1CCN=C1C(c1cc(NC(=O)c3cc(C(F)(F)F)ccn3)ccc1C)=C2 [Compound 122, N-(4-methyl-3-(4-methyl-2-(methylamino)-8,9-dihydroimidazo[1′,2′:1,6]pyrido[2,3-d]pyrimidin-6-yl)phenyl)-4-(trifluoromethyl)picolinamide]	
100 to 10000	100 to 10000	CNc1ncc2c(n1)N1C(=NC[C@H]1C)C(c1cc(NC(=O)c3cc(C(F)(F)F)ccn3)ccc1C)=C2 [Compound 129, (R)—N-(4-methyl-3-(9-methyl-2-(methylamino)-8,9-dihydroimidazo[1′,2′:1,6]pyrido[2,3-d]pyrimidin-6-yl)phenyl)-4-(trifluoromethyl)picolinamide]	
< 100	< 100	CNc1ncc2c(n1)N1C(=NC[C@@H]1C)C(c1cc(NC(=O)c3cc(C(F)(F)F)ccn3)ccc1C)=C2 [Compound 130, (S)—N-(4-methyl-3-(9-methyl-2-(methylamino)-8,9-dihydroimidazo[1′,2′:1,6]pyrido[2,3-d]pyrimidin-6-yl)phenyl)-4-(trifluoromethyl)picolinamide]	
100 to 10000	< 100	CNc1ncc2c(n1)N1CCN=C1C(c1cc(NC(=O)c3cc(C(F)(F)F)ccn3)ccc1F)=C2 [Compound 135, N-(4-fluoro-3-(2-(methylamino)-8,9-dihydroimidazo[1′,2′:1,6]pyrido[2,3-d]pyrimidin-6-yl)phenyl)-4-(trifluoromethyl)picolinamide]	
100 to 10000	< 100	CNc1ncc2c(n1)N1CCN=C1C(c1cc(NC(=O)c3cc(C(F)(F)F)ccn3)ccc1Cl)=C2 [Compound 136, N-(4-chloro-3-(2-(methylamino)-8,9-dihydroimidazo[1′,2′:1,6]pyrido[2,3-d]pyrimidin-6-yl)phenyl)-4-(trifluoromethyl)picolinamide]	IC50 (c-Kit): < 100 nM
< 100	< 100	Cc1ccc(Nc2ncc3c(n2)N2CCN=C2C(c2cc(NC(=O)c4cc(C(F)(F)F)ccn4)ccc2C)=C3)cn1 [Compound 208, N-(4-methyl-3-(2-((6-methylpyridin-3-yl)amino)-8,9-dihydroimidazo[1′,2′:1,6]pyrido[2,3-d]pyrimidin-6-yl)phenyl)-4-(trifluoromethyl)picolinamide]	
> 10000	100 to 10000	CNc1ncc2c(n1)N1CCN=C1C(c1ccc(NC(=O)C3(C(=O)Nc4ccc(F)cc4)CC3)cc1F)=C2 [Compound 340, N-(3-fluoro-4-(2-(methylamino)-8,9-dihydroimidazo[1′,2′:1,6]pyrido[2,3-d]pyrimidin-6-yl)phenyl)-N-(4-fluorophenyl)cyclopropane-1,1-dicarboxamide]	IC50 (Axl): > 10000 nM
< 100	100 to 10000	CNc1ncc2c(n1)N1CCN=C1C(c1cc(NC(=O)C3(C(=O)Nc4ccc(F)cc4)CC3)ccc1F)=C2 [Compound 341, N-(4-fluoro-3-(2-(methylamino)-8,9-dihydroimidazo[1′,2′:1,6]pyrido[2,3-d]pyrimidin-6-yl)phenyl)-N-(4-fluorophenyl)cyclopropane-1,1-dicarboxamide]	IC50 (Axl): > 10000 nM
		CNc1ncc2cc(-c3ccc(-c4cccc(C)n4)cc3Cl)c(=O)n(C[C@H]3OC[C@H](N)CO3)c2n1 [Compound G-5555]	inhibition of the PAK1 enzyme (PAK1 [2]): potent PAK1 inhibitors
